Where two headings read alike, the source gives them in different places.
Key:
macrophages = experiment: Cytotoxicity on macrophages; format: cell-based, BALB/c mice
Description: The macrophages, which will be used as host cells for the leishmania, are obtained after multiplication and differentiation of medullary precursors from BALB/c mice. This culture is prepared in the presence of supernatant from a conditioned line of fibroblasts L-929, and source of “Macrophage Colony Stimulating Factor”. After culturing for 5 days on a hydrophobic support, the adherent macrophages are recovered and then distributed in flat-bottomed 96-well plates for cell culture, in a proportion of 4×10^4 macrophages per well. The macrophages are then infected with purified amastigotes (4 parasites per macrophage) and incubated at 34° C. for 24 hours to allow development of parasitophorous vacuoles and multiplication of parasites. Under these conditions, more than 95% of the macrophages are infected.
The solutions of the substituted quinolines to be tested are prepared in DMSO before being added, at various concentrations, to the infected macrophage cultures.
The results obtained with the substituted quinolines, assigned Nos. 1, 2, 4, 6 to 11, 13 to 20, 23 to 34, 37 and 38 in Table I, are given in Table II below as regards their activity on the amastigotes of Leishmania amazonensis, of Leishmania donovani and of Leishmania infantum, and also their cytotoxicity with respect to the macrophages.

[1] = system: amastigotes of Trypanosoma cruzi (Tulahuen strain); experiment: Amastigotes of Trypanosoma cruzi in peritoneal macrophages; format: cell-based; details: read-out: T. cruzi (amastigotes) IC50
Description: c) Tests on Amastigotes of Trypanosoma cruzi
Peritoneal macrophages from Balb/c mice are collected, washed in Dulbecco PBS and then distributed in 96-well plates in a proportion of 3×10^4 cells per 100 μl and per well, in RPMI-1640 medium supplemented with 10% FCS and antibiotics.
After 24 hours at 37° C., 10^5 trypomastigotes are added with serial 2-fold dilutions of the various substituted quinolines. The cultures are then incubated at 37° C. for 4 days in a humid atmosphere (5% CO2-95% air). After fixing, and then staining with Giemsa, the antiparasitic activity is assessed by counting the extracellular trypomastigotes and the intracellular amastigotes.

[2] = system: amastigotes of Leishmania amazonensis; experiment: Amastigotes of Leishmania amazonensis in infected macrophages (leishmanicidal activity); format: cell-based; details: 100% inhibitory concentration, intracellular amastigotes in BALB/c macrophages, 30 hours after addition
Description: The strain of Leishmania amazonensis is maintained by successive passages in “nude” mice (nu/nu). The amastigotes are isolated from the lesions developed on the footpads, and purified according to the method described by Antoine et al. (Parasitology, 1989, 99: 1).
The leishmanicidal activity of the quinolines is determined 30 hours after addition of the solutions of substituted quinolines. It is based on a more or less large, or even complete, decrease, firstly, in the size of the parasitophorous vacuoles and, secondly, in the number of live intracellular amastigotes.

[3] = system: circulating forms of Trypanosoma brucei (S427 strain); experiment: microbe, parasite or virus in culture; format: cell-based; details: read-out: T. brucei IC50
Description: d) Tests on the Circulating Forms of Trypanosoma brucei
The circulating forms of Trypanosoma brucei are cultured in MEM medium (minimum essential medium; GIBCO-BRL, No. 072-1100) to which Earle's salts have been added and supplemented with 1 mg/ml of glucose, 2.2 mg/ml of NaHCO3, 10 mM of Hepes, 2 mM of sodium pyruvate, 0.2 mM of 2-mercaptoethanol, 0.1 mM of hypoxanthine and 15% of inactivated horse serum.
The cultures are maintained at 37° C. in 24-well plates in a humid atmosphere (5% CO2-95% air) and the passages are carried out every 2 or 3 days at a density of 10^3 to 10^5 trypomastigotes per ml. The activity of the substituted quinolines is tested in triplicate in 96-well plates in which 10^3 parasites originating from an exponential growth phase are distributed per well, in the presence of the various solutions of substituted quinolines in a final volume of 200 μl. After culturing for 48 hours, the trypanocidal activity is assessed by counting, with a Neubauer cell, the number of live parasites per well.

[4] = Cytotoxicity with respect to host CEM4fx cells (MTT bioconversion assay); format: cell-based; details: human, CEM4fx cells (host cells)
Description: (§1) Moreover, the cytotoxicity of the quinolines with respect to the host cells is measured by an MTT [3-(4,5-dimethylthiazol-2-yl)-2,5-diphenyltetrazolium bromide]bioconversion assay. All the assays are carried out in triplicate.

[5] = system: HIV-1 (molecular clone pLN4-3); experiment: microbe, parasite or virus in culture; format: cell-based, human immunodeficiency virus (HIV-1); details: read-out: Antiretroviral activity IC50
From the text: e) Tests on the Replication of HIV-1
CEM4fx cells are infected de novo with the molecular clone pLN4-3 of HIV-1, and simultaneously treated with the substituted quinolines to be tested, dissolved beforehand in DMSO. The virus multiplies for three days, and then the presence of infectious virions is detected in the culture supernatant (RPMI medium) by reinfecting “P4” cells which have a reporter gene which is expressed when they are infected with the virus. The viral load is quantified after culturing for 72 hours, by two methods: estimation of the viral load by infection of HeLa-βgal CD4^+ cells and determination of the amount of viral protein p24 by an ELISA assay.

[6] = system: Leishmania infantum (MHOM/FR/91/LEM2259V); experiment: Balb/c mice infected with visceral leishmaniasis (Leishmania infantum); format: in vivo; details: 10 days, quinolines oral 25 mg/kg/day, Glucantime subcutaneous 100 mg/kg/day
Description: b) Tests Carried on Laboratory Animals Infected with Visceral Leishmaniasis (Leishmania infantum): 1/Laboratory Animals and Parasites
The Balb/c mice were infected with Leishmania infantum parasites at the promastigote stage (reference: MHOM/FR/91/LEM2259V), a strain isolated from a patient carrying AIDS. This strain is maintained in Schneider's drosophila culture medium (Gibco, USA) supplemented with 20% of fetal calf serum. The infectious promastigotes are cultured for 7 days and then counted. Each mouse is then infected intravenously with 0.2 ml of culture medium containing 10^7 promastigotes.
Counting of amastigotes forms in the liver and spleen.
After the treatments have been stopped and the animals sacrificed, the viscera, liver and spleen are weighed and collected in a Petri dish. Each organ is mounted several times on a degreased glass slide which, fixed and stained by the May-Grünwald-Giemsa technique, makes it possible to determine the number of amastigote forms per 500 nucleated cells.
The results are expressed in Table VI.

CEM4fx cells = experiment: Cytotoxicity with respect to host CEM4fx cells (MTT bioconversion assay); format: cell-based
Description: as §1

[7] = system: amastigotes of Leishmania donovani (MHOM/ET/67/L82); experiment: microbe, parasite or virus in culture; format: cell-based; details: amastigotes in Balb/c peritoneal macrophages, 48 hours
From the text: (§2) b) Tests on Amastigotes of Leishmania donovani and Leishmania infantum
(§3) The Leishmania donovani and Leishmania infantum strains are maintained by successive passages in golden hamsters. The amastigotes are isolated from the spleens of the infected hamsters and brought into contact with the purified macrophages.
(§4) Twenty-four hours after intraperitoneal injection of Balb/c mice with a 2% starch solution, the peritoneal macrophages of these mice are collected, washed in Dulbecco PBS and then distributed in Lab-tek® culture chambers, in a proportion of 4×10^4 cells per 100 μl per well in RPMI-1640 medium supplemented with 10% of FCS and antibiotics. After 24 hours at 37° C. in a humid atmosphere (5% CO2), the macrophages are brought into contact with purified amastigotes (3 parasites per macrophage) in a final volume of 200 μl for 4 hours. The medium is then removed in order to eliminate the extracellular parasites, and replaced with 100 μl of fresh medium.
(§5) Twenty-four hours after the beginning of infection, the solutions of substituted quinolines prepared as described in paragraph a) above are added and the leishmanicidal activity is determined after 48 hours by counting the number of parasites still alive in the fixed and Giemsa-stained cells.

[8] = system: amastigotes of Leishmania infantum (IPZ229/1/89); experiment: microbe, parasite or virus in culture; format: cell-based; details: amastigotes in Balb/c peritoneal macrophages, 48 hours
From the text: as §2, §3, §4, §5

[9] = Balb/c peritoneal macrophages, 4 days
[10] = HIV-1 replication in CEM4fx cells, 72 hours

Row | Compound | Cytotoxicity on macrophages (macrophages; BALB/c, mouse) [µg/mL] | IC50 ([1]; Trypanosoma cruzi, TULAHUEN, Peritoneal macrophage, in Mus musculus, 96 h) [µM] | L. amazonensis IC100 [2] [µg/mL] | IC50 ([3]; Trypanosoma brucei, 48 h) [µM] | IC50 [4] [µM] | IC50 ([5]; Human immunodeficiency virus 1, 72 h) [µM] | Number of parasites in the liver per gram ([6]; n=8) | Number of parasites in the spleen per gram ([6]; n=8) | % reduction in the number of parasites in the liver ([6]; versus without treatment) [%] | % reduction in the number of parasites in the spleen ([6]; versus without treatment) [%] | Cytotoxicity on macrophages (macrophages; macrophages from BALB/c mice) [µg/mL] | IC50 [1, 9] [µM] | IC50 ([3]; circulating forms, culturing for 48 hours) [µM] | IC50 (CEM4fx cells) [µM] | IC50 [5, 10] [µM] | L. amazonensis IC100 ([2]; listed as 26) [µg/mL] | L. donovani IC50 [7] [µg/mL] | L. infantum (IPZ229/1/89) IC50 [8] [µg/mL]
1 | O=CC=Cc1ccc2ccccc2n1 [Quinoline 9, 3-(2-quinolyl)propenal] | 1.56 | 5 | 0.781 | 19 | 2 | 0.6 | 3.8 × 10^6 a, e per gram | 2.2 × 10^6 b per gram | −91.6 | −47.6 |  |  |  |  |  |  |  | 
2 | CCCCCc1ccc2ccccc2n1 [Quinoline 20] |  |  | >50 |  |  |  |  |  |  |  | >100 | 19 | 13 | 9 | 2 |  |  | 
3 | C[Si](C)(C)C#Cc1ccc2ccccc2n1 [Quinoline 26] |  |  |  |  |  |  |  |  |  |  | 1.56 | 8 |  | 3 | 0.9 | 12.5 | 1.7 | 10.9

From patent US7342026B2, “Substituted quinolines for the treatment of protozoa and retrovirus co-infections” (priority 2001, dated 2008)
